Molecular target: β-galactosidase LacZ from L. bulgaricus (nontagged) (Lactobacillus delbrueckii, UniProt Q1G9Z4)
Test: inhibition of oNPG hydrolysis, nonlinear regression
Format: biochemical
Conditions: read-out: nontagged LacZ; substrate oNPG; 50 mM sodium phosphate, pH 6.5, 30 °C; competitive

Sequence of β-galactosidase LacZ from L. bulgaricus (nontagged) (Q1G9Z4 2-1008): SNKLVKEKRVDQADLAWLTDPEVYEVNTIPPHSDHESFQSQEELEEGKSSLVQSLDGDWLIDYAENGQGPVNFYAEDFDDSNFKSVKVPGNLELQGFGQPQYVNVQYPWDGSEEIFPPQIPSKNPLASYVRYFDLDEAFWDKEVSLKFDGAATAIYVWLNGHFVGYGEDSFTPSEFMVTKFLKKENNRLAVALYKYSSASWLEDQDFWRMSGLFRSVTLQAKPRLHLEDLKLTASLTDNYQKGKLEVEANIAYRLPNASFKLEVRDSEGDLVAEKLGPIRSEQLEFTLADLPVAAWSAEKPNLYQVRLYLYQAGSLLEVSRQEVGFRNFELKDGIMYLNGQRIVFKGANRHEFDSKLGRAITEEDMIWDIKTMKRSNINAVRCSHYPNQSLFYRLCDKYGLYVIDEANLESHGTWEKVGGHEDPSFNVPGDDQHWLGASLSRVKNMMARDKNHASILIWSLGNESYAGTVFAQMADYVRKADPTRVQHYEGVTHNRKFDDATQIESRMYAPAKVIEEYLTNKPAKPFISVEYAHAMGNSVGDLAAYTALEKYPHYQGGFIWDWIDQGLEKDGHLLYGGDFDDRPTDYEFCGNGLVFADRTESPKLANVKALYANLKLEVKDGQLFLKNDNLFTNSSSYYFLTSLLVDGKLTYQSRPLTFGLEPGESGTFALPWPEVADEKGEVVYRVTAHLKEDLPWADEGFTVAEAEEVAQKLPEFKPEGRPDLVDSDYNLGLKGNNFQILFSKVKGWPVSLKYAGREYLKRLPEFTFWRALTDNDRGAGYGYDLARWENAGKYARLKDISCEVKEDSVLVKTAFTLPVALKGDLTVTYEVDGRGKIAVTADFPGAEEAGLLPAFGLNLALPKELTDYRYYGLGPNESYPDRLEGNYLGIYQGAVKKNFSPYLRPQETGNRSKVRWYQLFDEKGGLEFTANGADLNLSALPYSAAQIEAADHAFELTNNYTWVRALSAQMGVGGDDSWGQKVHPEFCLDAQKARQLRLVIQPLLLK

Question: Which Ki does the source give for `OC[C@H]1OC(O)[C@H](O)[C@@H](O)[C@H]1O` (stereo partly drawn) [D-galactose] here?
Answer: 9.52 ± 1.54 mM

Source: PMC3284191 (Journal of Agricultural and Food Chemistry, 2012)
